Data taken from patent US7534871B2, “Preparation and use of carbohydrate-based bicyclic ring structures with antimicrobial and cytostatic activity” (Kemin Pharma B.V.B.A., priority 2004, dated 2009).
Values after ≈ are worked out from the molar mass of the structure shown. Like-named read-outs stand apart in the source and are kept apart here.

Assays:
VZV OKA = test: microbe, parasite or virus in culture; assay type: cell-based, varicella zoster virus (VZV); conditions: for EC50: Human alphaherpesvirus 3, HEL, read-out: EC50 VZV (HEL) OKA
MRSA ATCC33591 = test: Anti-bacterial activity, Bioscreen C growth curve: MRSA; assay type: cell-based, methicillin-resistant Staphylococcus aureus (MRSA); conditions: Staphylococcus aureus, ATCC 33591 / LMG10147 / MRSA; 25 PPM; 35° C., 16 hours; negative control = 100; read-out: % of growth at 25 PPM compared to the negative control, MRSA ATCC33591 LMG10147
Protocol: (§1) For the determination of the anti-bacterial and anti-fungal activity the Bioscreen C Analyser Labsystems, Finland, was used. This is an automated reader-incubator. It measures growth continuously by vertical photometry (optical density), processes the data and provides a print out of the results. The area under the growth curve is automatically determined via the Biolink software.
(§2) The inoculum size of the bacteria is standardized to approximately 5×10^5 CFU/ml.
(§3) For bacteria, the 100-honey-well plates containing test chemical, Mueller-Hinton broth and inoculum (=sample) are incubated at 35° C. for 16 hours. Also wells without inoculum are incubated (=blanco). Yeasts are incubated 35° C. for 24 hours in RPMI 1640+MOPS buffer at 165 mM. Moulds also in RPMI 1640+MOPS buffer at 165 mM are incubated 25° C. for 5 days. All micro-organisms are screened against a known concentration of the reference antibiotics or antimycotics such as vancomycin, penicillin G, gentamicin or amphotericin B. The growth curve and the area under the growth curve can be determined using the Biolink software; this is illustrated in FIG. 1.
(§4) The area of the blanco is subtracted from the area of the sample, this number (delta) gives us an indication of the biological activity of the molecules tested and can be expressed as a % of growth at a specific dose compared to a negative control that has a value of 100, illustrated in FIG. 2. Screening of each dose of a specific compound is repeated 5 times. The dose used for all new molecules in all tests is 25 PPM or 25 μg/ml.
(§5) In Table 4 the results of the anti-bacterial activity is given for the new molecules. The micro-organisms used are Staphylococcus aureus, MRSA, VRE, Enterococcus faecalis, Salmonella typhimurium and Pseudomonas aeruginosa.

[1] = tested on: Candida albicans IHEM 10284 - ATCC 24433; test: Anti-fungal activity, Bioscreen C growth curve: Candida albicans (yeast); assay type: cell-based; conditions: for activity at 25 ppm: Candida albicans, ATCC24433, 35° C., 24 hours, negative control = 100, read-out: % of growth at a dose of 25 PPM compared to the negative control, Candida albicans IHEM 10284 - ATCC 24433
Protocol: as §1
The inoculum size of the yeast is standardized to 0.5-2.5×10^3 CFU/ml.
as §3, §4
In Table 5 the anti-fungal activity is given for the new molecules. The micro-organisms used were Candida albicans (a typical yeast) and Microsporum gypseum (a typical mold).
Also for the determination of the anti-fungal activity the Bioscreen C Analyser Labsystems Oy, Finland was used. It measures growth continuously by vertical photometry (optical density), processes the data and provides a print out of the results. The area under the growth curve is automatically determined via the Biolink software.
The inoculum size of the yeast is standardized to 0.5-2.5×10^3 CFU/ml. The inoculum size of the mould is standardized to 0.4-5.0×10^4 CFU/ml. Yeasts are incubated 35° C. for 24 hours in RPMI 1640+MOPS buffer at 165 mM. Moulds also in RPMI 1640+MOPS buffer at 165 mM are incubated 25° C. for 5 days.
As a control, all micro-organisms are screened against some reference antibiotics with known MIC. Screening of each dose of a specific compound is repeated 5 times.

[2] = tested on: S. typhimurium ATTC700408; test: Anti-bacterial activity, Bioscreen C growth curve: S. typhimurium; assay type: cell-based; conditions: Salmonella enterica, LMG16217 / TYPHIMURIUM, 35° C., 16 hours, negative control = 100, read-out: % of growth at 25 PPM compared to the negative control, S. typhimurium ATTC700408 LMG16217
Protocol: as §1, §2, §3, §4, §5

VRE ATCC700221 = test: Anti-bacterial activity, Bioscreen C growth curve: VRE; assay type: cell-based, vancomycin-resistant Enterococcus (VRE); conditions: Enterococcus, 35° C., 16 hours, negative control = 100, read-out: % of growth at 25 PPM compared to the negative control, VRE ATCC700221
Protocol: as §1, §2, §3, §4, §5

[3] = tested on: human cervix carcinoma cells (HeLa); test: Cytostatic activity: inhibition of proliferation of HeLa cells; assay type: cell-based; conditions: 50% inhibitory concentration, cell proliferation
Protocol: (§6) The compounds were tested for anti-tumor activity via the inhibitory effects on the proliferation of murine leukemia cells (L1210/0), murine mammary carcinoma cells (FM3A), human T-lymphocyte cells (Molt4/C8, CEM/0) and human cervix carcinoma cells (HeLa).

HIV-2 (ROD) = test: Anti-viral activity: HIV-2-induced cytopathicity in human CEM cell cultures; assay type: cell-based; conditions: Human immunodeficiency virus 2, CCRF-CEM; concentration required to inhibit HIV-induced cytopathicity in human CEM cell cultures by 50%
[4] = tested on: human T-lymphocyte cells (Molt4/C8); test: Cytostatic activity: inhibition of proliferation of Molt4/C8 cells; assay type: cell-based
Protocol: as §6

[5] = tested on: S. aureus ATTC29213 LMG10147; test: Anti-bacterial activity, Bioscreen C growth curve: S. aureus; assay type: cell-based; conditions: Staphylococcus aureus, 35° C., 16 hours, negative control = 100, read-out: % of growth at 25 PPM compared to the negative control, S. aureus ATTC29213 LMG10147
Protocol: as §1, §2, §3, §4, §5

VZV YS = test: Anti-viral activity: VZV-induced plaque formation in HEL cell cultures, YS strain; assay type: cell-based, varicella zoster virus (VZV); conditions: Human alphaherpesvirus 3, VZV-induced plaque formation in human embryonic lung HEL cell cultures, 50%
[6] = tested on: E. faecalis ATTC29212 LMG 8222; test: Anti-bacterial activity, Bioscreen C growth curve: E. faecalis; assay type: cell-based; conditions: Enterococcus faecalis, LMG8222, 35° C., 16 hours, negative control = 100, read-out: % of growth at 25 PPM compared to the negative control, E. faecalis ATTC29212 LMG 8222
Protocol: as §1, §2, §3, §4, §5

[7] = tested on: P. aeruginosa ATCC27853 LMG16217; test: Anti-bacterial activity, Bioscreen C growth curve: P. aeruginosa; assay type: cell-based, Pseudomonas aeruginosa; conditions: for activity at 25 ppm: Pseudomonas aeruginosa, 35° C., 16 hours, negative control = 100, read-out: % of growth at 25 PPM compared to the negative control, P. aeruginosa ATCC27853 LMG16217
Protocol: as §1, §2, §3, §4, §5

[8] = tested on: murine leukemia cells (L1210/0); test: Cytostatic activity: inhibition of proliferation of L1210/0 cells; assay type: cell-based; conditions: Mus musculus
Protocol: as §6

HSV-2 (G) = test: Anti-viral activity: HSV-2-induced cytopathicity in human embryo fibroblast E6SM cell cultures; assay type: cell-based, herpes simplex virus (HSV); conditions: Human alphaherpesvirus 2, 50%
[9] = Molt4/C8, 50% inhibitory concentration, cell proliferation, read-out: IC50 Molt4/C8
[10] = L1210/0, 50% inhibitory concentration, cell proliferation, read-out: IC50 L1210/0

Row | Compound | EC50 (VZV OKA) [µg/mL] | activity at 25 ppm (MRSA ATCC33591) [%] | activity at 25 ppm [1] [%] | activity against a yeast, in words ([1]; conclusion in text on Table 5) | activity at 25 ppm [2] [%] | activity at 25 ppm (VRE ATCC700221) [%] | IC50 [3] [µg/mL] | EC50 (HIV-2 (ROD)) [µg/mL] | IC50 [4, 9] [µg/mL] | activity at 25 ppm [5] [%] | EC50 (VZV YS) [µg/mL] | activity at 25 ppm [6] [%] | activity at 25 ppm [7] [%] | IC50 [8, 10] [µg/mL] | EC50 (HSV-2 (G)) [µg/mL] | anti-viral activity against VZV, in words (VZV OKA; strain not named) | anti-bacterial activity against P. aeruginosa, in words ([7]; conclusion on Table 4) | IC50 ([4]; Molt4/C8, read-out: IC50 Molt4/C8) [µg/mL] | IC50 ([8]; L1210/0, read-out: IC50 L1210/0) [µg/mL]
1 | CO[C@@H]1[C@@H](OC)[C@H](c2ccccc2)O[C@@H]2CO[C@@H](c3ccccc3)O[C@@H]12 [KPE00001015] | 13 (≈ 36.5 µM) | 117 | 66.6 | best activity | 87.2 | 67.8 | 104 ± 65 (≈ 292 µM) | > 4 | 62 ± 3 (≈ 174 µM) | 104 | 14 (≈ 39.3 µM) | 86 | 90.4 | ≥ 200 | > 80 | – | – | – | –
2 | CO[C@@H]1[C@@H](OC)[C@H](Sc2ccccc2)O[C@@H]2COC(=O)CCCC/C=C/CCCCC(=O)O[C@@H]12 [KPE00001016.1] | 5 (≈ 10.1 µM) | 115 | 98.4 | – | 76.4 | 61.8 | 19 ± 5 (≈ 38.6 µM) | > 4 | 39 ± 1 (≈ 79.2 µM) | 103 | 22 (≈ 44.7 µM) | 76.5 | 29 | 20 ± 7 (≈ 40.6 µM) | > 3.2 | especially active | good anti-bacterial activity | – | –
3 | CO[C@@H]1[C@@H](OC)[C@H](Sc2ccccc2)O[C@@H]2COC(=O)CCCC/C=C\CCCCC(=O)O[C@@H]12 [KPE00001016.2] | > 50 | 104 | 85 | – | 87 | 81 | 169 ± 44 (≈ 343 µM) | > 100 | 78 ± 53 (≈ 158 µM) | 97 | > 50 | 98.4 | 79.8 | 158 ± 10 (≈ 321 µM) | > 3.2 | – | – | – | –
4 | CO[C@@H]1[C@@H](OC)[C@H](Cc2ccccc2)O[C@@H]2CO[C@@H](c3ccccc3)O[C@@H]12 [KPE00001019] | > 5 | 104 | 98.5 | – | 94.3 | 97 | > 200 | > 100 | ≥ 200 | 109 | > 5 | 104 | 105 | > 200 | > 80 | – | – | – | –
5 | CO[C@@H]1[C@@H](OC)[C@H](Cc2ccccc2)O[C@@H]2COC(=O)CC/C=C/CCC(=O)O[C@@H]12 [KPE00001022] | > 20 | 110 | 91.5 | – | 94 | 87 | ~167 (≈ 399 µM) | > 20 | – | 102 | > 20 | 96.1 | 90.9 | – | 80 (≈ 191 µM) | – | – | 69 ± 6 (≈ 165 µM) | 80 (≈ 191 µM)
6 | CO[C@@H]1[C@@H](OC)[C@H](Cc2ccccc2)O[C@@H]2COC(=O)CCCCCCCCC=CCCCCCCCCC(=O)O[C@@H]12 [KPE00001031E] | > 5 | 104 | 88.3 | – | 91.7 | 85.4 | > 200 | > 20 | ≥ 200 | 100 | 15 (≈ 25.6 µM) | 85.5 | 89.6 | > 200 | > 400 | – | – | – | –
